Reference: publication PMC5840146, “Structure-Activity Relationship Analysis of 3-Phenylcoumarin-Based Monoamine Oxidase B Inhibitors” (Frontiers in Chemistry, 2018)
Several values for one entry are separate records, joined by “and”; a condition that tells them apart may be missing. Equal entries are not always repeated.

How the values were obtained:
[1] = target: T1, MAO-A (Homo sapiens, UniProt P21397); test: continuous spectrophotometric MAO-A inhibition assay; format: biochemical; details: for MAO-A inhibition %: 100 µM, 1h
T1 construct: purchased Sigma-Aldrich
T1 sequence (P21397 1-527): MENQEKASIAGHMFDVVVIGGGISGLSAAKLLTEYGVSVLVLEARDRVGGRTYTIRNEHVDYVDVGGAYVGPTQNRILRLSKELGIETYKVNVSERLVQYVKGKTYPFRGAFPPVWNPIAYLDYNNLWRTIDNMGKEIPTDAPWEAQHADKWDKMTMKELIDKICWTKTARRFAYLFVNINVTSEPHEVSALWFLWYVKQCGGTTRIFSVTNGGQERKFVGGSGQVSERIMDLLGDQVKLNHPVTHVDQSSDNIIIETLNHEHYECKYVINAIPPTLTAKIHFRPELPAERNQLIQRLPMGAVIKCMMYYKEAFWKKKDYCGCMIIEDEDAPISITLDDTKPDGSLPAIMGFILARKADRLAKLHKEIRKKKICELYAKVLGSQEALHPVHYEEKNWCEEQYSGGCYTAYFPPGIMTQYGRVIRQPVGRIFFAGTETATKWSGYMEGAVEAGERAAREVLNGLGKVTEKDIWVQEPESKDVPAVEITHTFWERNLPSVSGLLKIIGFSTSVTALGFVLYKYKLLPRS
Description: (§1) Both monoamine oxidase A (MAO-A) and B (MAO-B) protein and the reagents for the chromogenic solution of vanillic acid (4-hydroxy-3-methoxylbenzoic acid, 97% purity), 4-aminoantipyrine (reagent grade), horseradish peroxidase and the substrate tyramine hydrochloride (minimum 99% purity) as well as the potassium phosphate buffer, which was prepared using potassium phosphate dibasic trihydrate (≥99% ReagentPlus™) and potassium phosphate monobasic (minimum 98% purity, molecular biology tested), were purchased from Sigma-Aldrich (St. Louis, MO, USA) for the spectrophotometric assay.
(§2) The protocol for continuous spectrophotometric assay (Holt et al., [1997]) was followed in the activity measurements. The assay was performed in 0.2 M potassium phosphate buffer pH 7.6 on 96-well plates (Nunc™ 96F microwell plate without a lid, Nunc A/S, Roskilde, DK) in 200 μl total volume. The chromogenic solution containing 1 mM vanillic acid, 500 μM 4-aminoantipyrine and 8 U/ml horseradish peroxidase in 0.2 M potassium phosphate buffer pH 7.6 was mixed anew for each measurement. 5 mM tyramine solution was used as the substrate. In order to determine the activity of both MAO-B and MAO-A, concentration series as duplicates were prepared. The protein was combined with the chromogenic solution and incubated 30 min at 37°C. The background signal was measured using multilabel reader (Victor^TM X4, 2030 Multilabel Reader, PerkinElmer, Waltham, MA, USA) at A490 before reaching the total 200 μl volume by adding 20 μl of tyramine to final concentration of 0.5 mM on the plate. As a result, the final concentration of the chromogenic solution on the plate was 250 μM vanillic acid, 125 μM 4-aminoantipyrine and 2 U/ml horseradish peroxide. After adding the substrate, the plates were measured 300 times every 15 s using 1 s exposure time. The device was set to 37°C for the duration of the experiment.
(§3) The experiment conditions should produce absorbance change of ~0.35 (Holt et al., [1997]). […] The same wide panel of coumarin derivatives was additionally used to analyze the MAO-A inhibition at 100 μM (Table 1, Supplementary Table S1).
(§4) The measured data was then fitted on a curve using non-linear regression with the equation for log[inhibitor] vs. response. The IC50 values were therefore determined based on the curve fit. The fitted curves are shown on –log scale in Supplementary Figures S1, S2.

[2] = target: T2, MAO-B (Homo sapiens, UniProt P27338); test: continuous spectrophotometric MAO-B inhibition assay; format: biochemical; details: for LiPE: LiPE = pIC50 - QPlogPo/w, new analogs and pargyline; for IC50: dilution series 50 μM to 1 nM, duplicates, read-out: MAO-B inhibition IC50; for MAO-B inhibition %: 10 µM, 2h
T2 construct: purchased Sigma-Aldrich
T2 sequence (P27338 1-520): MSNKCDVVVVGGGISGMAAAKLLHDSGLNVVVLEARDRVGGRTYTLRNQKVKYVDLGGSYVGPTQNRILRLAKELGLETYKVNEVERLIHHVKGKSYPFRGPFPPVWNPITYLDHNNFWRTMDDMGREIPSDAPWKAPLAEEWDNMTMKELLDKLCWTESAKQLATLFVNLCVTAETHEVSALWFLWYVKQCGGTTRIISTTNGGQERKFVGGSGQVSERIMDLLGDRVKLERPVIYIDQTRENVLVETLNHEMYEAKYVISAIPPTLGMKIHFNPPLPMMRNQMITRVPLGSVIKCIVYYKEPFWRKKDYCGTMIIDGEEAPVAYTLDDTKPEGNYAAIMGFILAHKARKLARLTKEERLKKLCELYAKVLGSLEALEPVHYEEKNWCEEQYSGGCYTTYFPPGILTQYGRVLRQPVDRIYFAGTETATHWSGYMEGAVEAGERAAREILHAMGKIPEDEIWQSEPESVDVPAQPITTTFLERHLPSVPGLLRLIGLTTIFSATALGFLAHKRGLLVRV
Description: as §1, §2, §3, §4

Row | SMILES | inhibition at 100 µM [1] [%] | inhibition at 10 µM [2] [%] | LiPE [2] | IC50 [2] | MAO-A inhibition % [1] [%] | MAO-B inhibition % [2] [%] | MAO-B inhibition (in words) [2]
1 | O=c1oc2ccc(O)cc2cc1-c1ccc(F)cc1 [derivative 24, 3-(4-fluorophenyl)-6-hydroxy-2H-chromen-2-one] | 14.2 | 89.1 | 3.37 | 1060 nM | – | – | –
2 | CC(=O)Oc1ccc2cc(-c3ccc(F)cc3)c(=O)oc2c1 [derivative 28] | – | – | – | – | 0.00 | 59.20 | –
3 | Cc1ccc2oc(=O)c(-c3ccc(F)cc3)cc2c1 [derivative 23, 3-(4-fluorophenyl)-6-methyl-2H-chromen-2-one] | 0 | 83.5 | 2.46 | 902 nM | – | – | –
4 | O=c1oc2ccc(O)cc2cc1-c1ccc(O)cc1 [derivative 48] | – | – | – | – | 0.00 | 15.50 | –
5 | COc1ccc(-c2cc3ccc(O)cc3oc2=O)cc1 [derivative 12, 7-hydroxy-3-(4-methoxyphenyl)-2H-chromen-2-one] | 24.6 | 85.9 | 3.53 | 955 nM | – | – | –
6 | COc1ccc2oc(=O)c(-c3ccc(N(C)C)cc3)cc2c1 [derivative 18, 3-(4-(dimethylamino)phenyl)-6-methoxy-2H-chromen-2-one] | 0 | 93.9 | 2.72 | 617 nM | – | – | –
7 | COc1ccc2cc(-c3cc(F)c(F)cc3F)c(=O)oc2c1 [derivative 16, 7-methoxy-3-(2,4,5-trifluorophenyl)-2H-chromen-2-one] | – | 77.6 | 2.13 | 1430 nM | – | – | –
8 | O=c1oc2cc(O)ccc2cc1-c1ccc(F)cc1 [derivative 39] | – | – | – | – | 12.56 | 26.44 | –
9 | COc1ccc2oc(=O)c(-c3cc(F)c(F)cc3F)cc2c1 [derivative 15, 6-methoxy-3-(2,4,5-trifluorophenyl)-2H-chromen-2-one] | 0 | 87.2 | 2.80 | 292 nM | – | – | –
10 | COc1ccc2cc(-c3ccc(O)c(F)c3)c(=O)oc2c1 [derivative 20, 3-(3-fluoro-4-hydroxyphenyl)-7-methoxy-2H-chromen-2-one] | 0 | 101 | 3.70 | 391 nM | – | – | –
11 | COc1ccc2oc(=O)c(-c3ccc(F)cc3)cc2c1 [derivative 21, 3-(4-fluorophenyl)-6-methoxy-2H-chromen-2-one] | 0 | 88.8 | 3.04 | 433 nM | – | – | –
12 | COc1cccc(-c2cc3cc(OC)ccc3oc2=O)c1 [derivative 8, 6-methoxy-3-(3-methoxyphenyl)-2H-chromen-2-one] | 0 | 112 | 3.53 | ~230 nM and 230 nM and 231 nM | – | – | –
13 | COc1ccc2oc(=O)c(-c3ccc(Oc4ccc(F)cc4)cc3)cc2c1 [derivative 46] | – | – | – | – | 8.11 | 19.73 | –
14 | COc1ccc(-c2cc3cccc(O)c3oc2=O)cc1 [derivative 33] | – | – | – | – | 3.66 | 47.64 | –

More lines, now with the values ahead:

Row | inhibition at 100 µM [1] [%] | inhibition at 10 µM [2] [%] | LiPE [2] | IC50 [2] | MAO-A inhibition % [1] [%] | MAO-B inhibition % [2] [%] | MAO-B inhibition (in words) [2] | SMILES
15 | 0 | 90.3 | 3.04 | 798 nM | – | – | – | COc1cccc(-c2cc3ccccc3oc2=O)c1 [derivative 11, 3-(3-methoxyphenyl)-2H-chromen-2-one]
16 | – | – | – | – | 43.83 | 61.91 | – | Cc1ccc(-c2cc3ccc(O)cc3oc2=O)cc1 [derivative 27]
17 | – | – | – | – | 4.14 | 49.60 | – | O=c1oc2ccccc2cc1-c1cccc(O)c1 [derivative 31]
18 | – | – | – | – | 0.00 | 52.68 | – | O=c1oc2cc(O)ccc2cc1-c1ccc(O)cc1 [derivative 30]
19 | – | – | – | – | 9.52 | 23.82 | activity is lost | O=c1oc2cc(O)ccc2cc1-c1ccccc1 [derivative 41]
20 | 0 | 94.9 | 3.35 | 831 nM | – | – | – | COc1ccc2oc(=O)c(-c3ccc(O)c(F)c3)cc2c1 [derivative 22, 3-(3-fluoro-4-hydroxyphenyl)-6-methoxy-2H-chromen-2-one]
21 | – | – | – | – | 0.00 | 67.49 | – | COc1cccc(-c2cc3ccc(OC)cc3oc2=O)c1 [derivative 25]
22 | 0 | 105 | 2.11 | 343 nM | – | – | – | Cc1ccc2oc(=O)c(-c3ccc(C(F)(F)F)cc3)cc2c1 [derivative 5, 6-methyl-3-(4-(trifluoromethyl)phenyl)-2H-chromen-2-one]
23 | – | – | – | – | 13.11 | 27.16 | – | O=c1oc2ccc(O)cc2cc1-c1cccc(O)c1 [derivative 38]
24 | – | – | – | – | 0.87 | 41.12 | – | COc1ccc(-c2cc3ccccc3oc2=O)cc1 [derivative 36]
25 | – | – | – | – | 0.00 | 53.65 | – | O=c1oc2ccccc2cc1-c1ccc(O)cc1 [derivative 29]
